Test results reported in ChEMBL document CHEMBL4052642, “4-Methyl-6,7-dihydro-4H-triazolo[4,5-c]pyridine-Based P2X7 Receptor Antagonists: Optimization of Pharmacokinetic Properties Leading to the Identification of a Clinical Candidate” (J Med Chem, 2017).
In brackets after ≈: the same amount, converted by molar mass.

What was measured:
[1] = Volume of distribution at steady state in Sprague-Dawley rat at 1 mg/kg, iv or 5 mg/kg, po by LC-MS/MS analysis; assay type: ADME, organism-based; conditions: in vivo, read-out: Vdss
Rattus norvegicus [2] = assay: Toxicity in rat assessed as autoinduction at 50 to 500 mg/kg administered via oral gavage on day 1 and day 5; assay type: organism-based; conditions: in vivo
[3] = Solubility of compound in phosphate buffer at pH 7 after 3 days; assay type: physicochemical
Cytochrome P450 2C19 [4] = target: T1, Cytochrome P450 2C19 (Homo sapiens, UniProt P33261); assay: Drug metabolism assessed as recombinant human CYP2C19-mediated metabolite formation; assay type: ADME; conditions: recombinant enzyme
T1 sequence (P33261 whole entry): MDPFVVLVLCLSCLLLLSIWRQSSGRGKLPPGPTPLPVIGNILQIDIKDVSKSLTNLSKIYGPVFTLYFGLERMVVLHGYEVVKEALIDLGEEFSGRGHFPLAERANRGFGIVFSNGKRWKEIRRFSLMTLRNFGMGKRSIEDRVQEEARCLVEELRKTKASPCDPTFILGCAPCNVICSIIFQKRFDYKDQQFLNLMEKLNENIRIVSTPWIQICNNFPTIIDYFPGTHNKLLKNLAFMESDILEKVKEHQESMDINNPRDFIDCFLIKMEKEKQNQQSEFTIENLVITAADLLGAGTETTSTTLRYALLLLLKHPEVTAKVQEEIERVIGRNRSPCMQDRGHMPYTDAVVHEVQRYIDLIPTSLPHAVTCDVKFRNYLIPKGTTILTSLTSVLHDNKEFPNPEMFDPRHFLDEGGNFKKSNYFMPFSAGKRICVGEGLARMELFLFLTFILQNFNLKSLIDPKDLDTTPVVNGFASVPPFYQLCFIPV

[5] = Half life in beagle dog at 0.5 mg/kg, iv by LC-MS/MS analysis; assay type: ADME, organism-based, Canis lupus familiaris; conditions: in vivo
[6] = Volume of distribution at steady state in beagle dog at 0.5 mg/kg, iv or 2.5 mg/kg, po by LC-MS/MS analysis; assay type: ADME, organism-based, Canis lupus familiaris; conditions: in vivo, read-out: Vdss
Liver [7] = assay: Drug metabolism in dog liver microsomes assessed as oxidation of methyl group on pyrimidine at 1 uM after 5 to 60 mins by LC-MS/MS analysis; assay type: ADME, Canis lupus familiaris, microsome
[8] = Clearance in Sprague-Dawley rat at 1 mg/kg, iv or 5 mg/kg, po by LC-MS/MS analysis; assay type: ADME, organism-based; conditions: in vivo
[9] = Clearance in beagle dog at 0.5 mg/kg, iv or 2.5 mg/kg, po by LC-MS/MS analysis; assay type: ADME, organism-based, Canis lupus familiaris; conditions: in vivo
Liver [10] = assay: Drug metabolism in rat liver microsomes assessed as oxidation of methyl group on pyrimidine at 1 uM after 5 to 60 mins by LC-MS/MS analysis; assay type: ADME, microsome
[11] = Solubility of compound in phosphate buffer at pH 2 after 3 days; assay type: physicochemical
Liver [12] = assay: Drug metabolism in mouse liver microsomes assessed as oxidation of methyl group on pyrimidine at 1 uM after 5 to 60 mins by LC-MS/MS analysis; assay type: ADME, microsome
[13] = Half life in Sprague-Dawley rat at 1 mg/kg, iv by LC-MS/MS analysis; assay type: ADME, organism-based; conditions: in vivo
[14] = Drug metabolism in cynomolgus monkey liver microsomes assessed as oxidation of methyl group on pyrimidine at 1 uM after 5 to 60 mins by LC-MS/MS analysis; assay type: ADME, Macaca fascicularis, microsome
[15] = Protein binding in rat plasma at 1 uM after 6 hrs by equilibrium dialysis method; assay type: ADME, cell-free; conditions: read-out: PPB (converted)
[16] = Oral bioavailability in beagle dog at 2.5 mg/kg by LC-MS/MS analysis; assay type: ADME, organism-based, Canis lupus familiaris; conditions: beagle, in vivo
Rattus norvegicus [17] = assay: Ex vivo receptor occupancy at P2X7 in po dosed Sprague-Dawley rat brain after 60 mins by autoradiography; assay type: functional; conditions: 1 h
Rattus norvegicus [18] = assay: Toxicity in rat assessed as increase in liver weight at 50 to 500 mg/kg administered via oral gavage on day 1 and day 4; assay type: organism-based; conditions: in vivo
[19] = Protein binding in rat brain at 5 uM after 5 hrs by equilibrium dialysis method; assay type: ADME, tissue-based; conditions: read-out: PB (converted)
[20] = Oral bioavailability in Sprague-Dawley rat at 5 mg/kg by LC-MS/MS analysis; assay type: ADME, organism-based; conditions: in vivo
[21] = Protein binding in mouse plasma at 1 uM after 6 hrs by equilibrium dialysis method; assay type: ADME, cell-free; conditions: read-out: PPB (converted)
Liver [22] = assay: Drug metabolism in human liver microsomes assessed as oxidation of methyl group on pyrimidine at 1 uM after 5 to 60 mins by LC-MS/MS analysis; assay type: ADME, microsome
Rattus norvegicus [23] = assay: Ex vivo receptor occupancy at P2X7 in po dosed Sprague-Dawley rat brain assessed as plasma concentration required to achieve EC50 after 60 mins by autoradiography; assay type: functional, organism-based
[24] = Protein binding in human plasma at 1 uM after 6 hrs by equilibrium dialysis method; assay type: ADME, cell-free; conditions: read-out: PPB (converted)
P2X purinoceptor 7 = P2X purinoceptor 7 (Homo sapiens, UniProt Q99572); assay: Antagonist activity at human P2X7
P2X purinoceptor 7, sequence (Q99572 whole entry): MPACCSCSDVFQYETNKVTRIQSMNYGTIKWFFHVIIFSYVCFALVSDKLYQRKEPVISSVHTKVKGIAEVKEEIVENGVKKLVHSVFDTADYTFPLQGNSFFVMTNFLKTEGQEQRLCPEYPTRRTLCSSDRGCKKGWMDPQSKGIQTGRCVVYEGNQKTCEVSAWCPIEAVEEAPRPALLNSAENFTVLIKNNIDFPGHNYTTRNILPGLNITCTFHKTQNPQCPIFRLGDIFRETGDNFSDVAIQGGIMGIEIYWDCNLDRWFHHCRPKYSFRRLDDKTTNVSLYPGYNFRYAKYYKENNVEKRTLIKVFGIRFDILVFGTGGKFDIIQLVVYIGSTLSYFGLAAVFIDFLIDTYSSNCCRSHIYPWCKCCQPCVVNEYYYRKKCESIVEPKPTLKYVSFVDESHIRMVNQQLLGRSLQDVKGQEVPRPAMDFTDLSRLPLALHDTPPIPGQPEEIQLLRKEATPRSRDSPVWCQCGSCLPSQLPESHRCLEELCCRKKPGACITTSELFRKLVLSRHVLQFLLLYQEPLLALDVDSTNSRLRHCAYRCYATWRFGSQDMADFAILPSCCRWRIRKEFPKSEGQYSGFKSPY

Rattus norvegicus [25] = assay: Ex vivo receptor occupancy at P2X7 in sc dosed Sprague-Dawley rat brain after 60 mins by autoradiography; assay type: functional
Cytochrome P450 2C9 = Cytochrome P450 2C9 (Homo sapiens, UniProt P11712); assay: Inhibition of CYP2C9 in human liver microsomes using diclofenac as substrate after 15 mins by LC-MS/MS analysis; assay type: ADME
Cytochrome P450 2C9, sequence (P11712 whole entry): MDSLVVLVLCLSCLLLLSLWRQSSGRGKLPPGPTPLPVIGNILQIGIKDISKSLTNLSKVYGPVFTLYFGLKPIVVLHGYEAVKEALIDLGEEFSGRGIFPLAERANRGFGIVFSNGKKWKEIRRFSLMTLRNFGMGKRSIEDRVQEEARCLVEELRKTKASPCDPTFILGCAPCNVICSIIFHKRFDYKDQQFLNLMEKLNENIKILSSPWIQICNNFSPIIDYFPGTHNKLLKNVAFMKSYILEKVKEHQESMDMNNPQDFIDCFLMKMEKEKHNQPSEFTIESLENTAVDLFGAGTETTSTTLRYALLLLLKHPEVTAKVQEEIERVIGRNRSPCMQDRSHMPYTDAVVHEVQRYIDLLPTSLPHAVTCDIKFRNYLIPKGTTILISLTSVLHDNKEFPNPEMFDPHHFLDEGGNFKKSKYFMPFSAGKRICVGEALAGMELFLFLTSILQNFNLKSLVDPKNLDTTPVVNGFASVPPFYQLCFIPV

Cytochrome P450 3A4 = Cytochrome P450 3A4 (Homo sapiens, UniProt P08684); assay: Inhibition of CYP3A4 in human liver microsomes using midazolam as substrate after 15 mins by LC-MS/MS analysis; assay type: ADME
Cytochrome P450 3A4, sequence (P08684 whole entry): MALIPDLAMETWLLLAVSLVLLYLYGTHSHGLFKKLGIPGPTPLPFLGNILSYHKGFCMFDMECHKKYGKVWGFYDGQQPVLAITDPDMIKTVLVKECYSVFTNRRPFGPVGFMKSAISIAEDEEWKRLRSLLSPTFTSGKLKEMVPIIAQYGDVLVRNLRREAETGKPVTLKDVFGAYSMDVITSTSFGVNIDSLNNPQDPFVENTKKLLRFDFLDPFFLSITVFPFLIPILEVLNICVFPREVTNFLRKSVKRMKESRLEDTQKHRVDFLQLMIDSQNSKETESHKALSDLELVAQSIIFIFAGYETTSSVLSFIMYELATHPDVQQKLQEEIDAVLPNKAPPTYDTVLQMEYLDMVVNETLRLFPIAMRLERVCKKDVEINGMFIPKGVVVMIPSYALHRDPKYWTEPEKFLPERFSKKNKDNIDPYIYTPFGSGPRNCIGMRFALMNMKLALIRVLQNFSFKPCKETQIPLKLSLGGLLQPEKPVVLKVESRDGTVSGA

Cytochrome P450 2C19 [26] = target: T1, Cytochrome P450 2C19; assay: Inhibition of CYP2C19 in human liver microsomes using S-mephenytoin as substrate after 15 mins by LC-MS/MS analysis; assay type: ADME
Rattus norvegicus [27] = assay: Inhibition of Bz-ATP-induced IL-1beta release in sc dosed Sprague-Dawley rat hippocampus preincubated for 1 hr followed by Bz-ATP challenge measured after 2 hrs by microdialysis method; assay type: functional, organism-based
Cytochrome P450 2D6 = Cytochrome P450 2D6 (Homo sapiens, UniProt P10635); assay: Inhibition of CYP2D6 in human liver microsomes using dextromethorphan as substrate after 15 mins by LC-MS/MS analysis; assay type: ADME
Cytochrome P450 2D6, sequence (P10635 whole entry): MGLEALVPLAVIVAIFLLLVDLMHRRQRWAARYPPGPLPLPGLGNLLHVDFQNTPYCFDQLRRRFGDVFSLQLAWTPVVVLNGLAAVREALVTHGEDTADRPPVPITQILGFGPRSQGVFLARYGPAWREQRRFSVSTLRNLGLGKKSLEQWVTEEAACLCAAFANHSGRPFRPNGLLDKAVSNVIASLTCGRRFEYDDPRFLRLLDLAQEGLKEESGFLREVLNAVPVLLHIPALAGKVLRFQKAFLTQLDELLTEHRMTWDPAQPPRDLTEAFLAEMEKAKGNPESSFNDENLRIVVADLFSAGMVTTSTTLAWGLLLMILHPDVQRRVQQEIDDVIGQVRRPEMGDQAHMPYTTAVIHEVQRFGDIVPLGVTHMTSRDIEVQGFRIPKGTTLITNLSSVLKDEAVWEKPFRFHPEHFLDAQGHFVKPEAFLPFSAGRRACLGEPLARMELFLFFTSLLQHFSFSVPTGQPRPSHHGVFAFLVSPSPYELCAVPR

Cytochrome P450 1A2 = target: T2, Cytochrome P450 1A2 (Homo sapiens, UniProt P05177); assay: Inhibition of CYP1A2 in human liver microsomes using phenacetin as substrate after 15 mins by LC-MS/MS analysis; assay type: ADME
T2 sequence (P05177 whole entry): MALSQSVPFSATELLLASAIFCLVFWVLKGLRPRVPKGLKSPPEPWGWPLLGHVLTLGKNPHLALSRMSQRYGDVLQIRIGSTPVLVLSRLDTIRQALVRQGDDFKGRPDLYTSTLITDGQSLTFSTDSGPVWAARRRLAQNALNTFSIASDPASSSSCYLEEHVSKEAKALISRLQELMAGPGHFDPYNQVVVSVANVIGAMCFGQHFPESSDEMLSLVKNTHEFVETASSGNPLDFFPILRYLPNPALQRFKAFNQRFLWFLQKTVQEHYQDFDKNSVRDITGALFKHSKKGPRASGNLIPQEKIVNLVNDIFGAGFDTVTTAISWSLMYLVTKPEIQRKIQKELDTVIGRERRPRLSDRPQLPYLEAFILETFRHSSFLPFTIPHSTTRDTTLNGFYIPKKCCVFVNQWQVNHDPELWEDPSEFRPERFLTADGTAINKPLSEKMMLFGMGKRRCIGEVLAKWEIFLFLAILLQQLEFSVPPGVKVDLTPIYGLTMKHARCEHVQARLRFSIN

[28] = Clearance in beagle dog at 1 mg/kg, iv or 3 mg/kg, po by LC-MS/MS analysis; assay type: ADME, organism-based, Canis lupus familiaris; conditions: in vivo
Cytochrome P450 2C8 = target: T3, Cytochrome P450 2C8 (Homo sapiens, UniProt P10632); assay: Inhibition of CYP2C8 in human liver microsomes using paclitaxel as substrate after 15 mins by LC-MS/MS analysis; assay type: ADME
T3 sequence (P10632 whole entry): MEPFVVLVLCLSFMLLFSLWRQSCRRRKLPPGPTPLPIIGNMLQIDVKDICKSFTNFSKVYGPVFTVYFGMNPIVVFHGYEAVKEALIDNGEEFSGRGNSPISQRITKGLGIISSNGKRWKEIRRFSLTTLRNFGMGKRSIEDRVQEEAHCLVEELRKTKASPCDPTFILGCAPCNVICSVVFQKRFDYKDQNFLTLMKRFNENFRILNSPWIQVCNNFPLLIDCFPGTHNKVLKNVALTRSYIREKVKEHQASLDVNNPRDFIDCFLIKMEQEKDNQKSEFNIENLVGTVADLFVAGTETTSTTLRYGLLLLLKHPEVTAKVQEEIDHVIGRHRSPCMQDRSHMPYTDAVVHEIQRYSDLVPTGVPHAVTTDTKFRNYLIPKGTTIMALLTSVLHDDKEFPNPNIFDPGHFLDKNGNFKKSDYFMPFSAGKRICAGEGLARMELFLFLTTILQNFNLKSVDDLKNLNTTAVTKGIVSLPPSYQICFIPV

[29] = Oral bioavailability in beagle dog at 3 mg/kg by LC-MS/MS analysis; assay type: ADME, organism-based, Canis lupus familiaris; conditions: in vivo
[30] = target: Voltage-gated inwardly rectifying potassium channel KCNH2 (Homo sapiens, UniProt Q12809); assay: Inhibition of [3H]-dofetilide binding to human ERG expressed in HEK293 cells; assay type: cell-based
Voltage-gated inwardly rectifying potassium channel KCNH2, sequence (Q12809 whole entry): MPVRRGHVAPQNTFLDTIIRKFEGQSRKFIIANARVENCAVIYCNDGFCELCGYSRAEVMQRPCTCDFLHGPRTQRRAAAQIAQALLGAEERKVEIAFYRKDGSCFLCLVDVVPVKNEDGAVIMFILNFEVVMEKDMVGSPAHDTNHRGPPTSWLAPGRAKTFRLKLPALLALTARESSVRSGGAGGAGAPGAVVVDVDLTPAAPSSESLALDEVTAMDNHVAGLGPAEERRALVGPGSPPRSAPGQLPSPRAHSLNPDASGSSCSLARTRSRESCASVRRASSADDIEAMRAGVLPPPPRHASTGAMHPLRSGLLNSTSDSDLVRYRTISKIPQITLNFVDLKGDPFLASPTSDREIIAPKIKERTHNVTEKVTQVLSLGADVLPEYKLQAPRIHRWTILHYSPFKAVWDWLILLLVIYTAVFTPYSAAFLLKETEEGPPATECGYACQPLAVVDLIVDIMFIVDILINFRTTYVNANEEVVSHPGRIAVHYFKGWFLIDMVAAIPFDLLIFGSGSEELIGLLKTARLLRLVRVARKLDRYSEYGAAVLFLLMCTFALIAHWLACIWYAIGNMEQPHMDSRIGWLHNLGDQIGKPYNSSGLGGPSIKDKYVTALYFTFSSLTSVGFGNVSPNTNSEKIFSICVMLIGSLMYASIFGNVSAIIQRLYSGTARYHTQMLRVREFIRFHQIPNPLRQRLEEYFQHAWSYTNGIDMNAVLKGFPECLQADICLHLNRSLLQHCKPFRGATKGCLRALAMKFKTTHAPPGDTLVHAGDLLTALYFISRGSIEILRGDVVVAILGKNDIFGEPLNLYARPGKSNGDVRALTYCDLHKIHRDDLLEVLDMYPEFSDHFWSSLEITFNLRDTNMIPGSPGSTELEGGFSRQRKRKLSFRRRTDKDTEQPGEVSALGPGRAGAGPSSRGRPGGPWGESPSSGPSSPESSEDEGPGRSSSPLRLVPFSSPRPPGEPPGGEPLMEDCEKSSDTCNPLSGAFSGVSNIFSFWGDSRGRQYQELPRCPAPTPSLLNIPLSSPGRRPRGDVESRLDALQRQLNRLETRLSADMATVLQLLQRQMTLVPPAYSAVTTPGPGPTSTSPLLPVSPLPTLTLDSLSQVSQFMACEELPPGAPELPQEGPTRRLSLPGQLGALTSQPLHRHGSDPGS

[31] = Half life in beagle dog at 1 mg/kg, iv by LC-MS/MS analysis; assay type: ADME, organism-based, Canis lupus familiaris; conditions: in vivo
[32] = Volume of distribution at steady state in beagle dog at 1 mg/kg, iv or 3 mg/kg, po by LC-MS/MS analysis; assay type: ADME, organism-based, Canis lupus familiaris; conditions: in vivo, read-out: Vdss

With Cc1ccnc(-n2nnc3c2CCN(C(=O)c2cccc(C(F)(F)F)c2Cl)[C@@H]3C)n1 the Vd [1] was 1.6 L/kg, the Activity (Rattus norvegicus [2]) was “Toxic” and the solubility at 72 h [3] was 283 µM (≈ 124 µg/mL). The Drug metabolism (Cytochrome P450 2C19 [4]) was “Metabolite_Detected”, the half-life [5] was 0.7 h and the Vd [6] was 1.8 L/kg. The Drug metabolism (Liver [7]) was “Metabolite_Detected”, the clearance [8] was 64 mL/min/kg and the clearance [9] was 21 mL/min/kg. The Drug metabolism (Liver [10]) was “Metabolite_Detected”, the solubility at 72 h [11] was 328 µM (≈ 143 µg/mL) and the Drug metabolism (Liver [12]) was “Metabolite_Detected”. The half-life [13] was 0.8 h, the Drug metabolism [14] was “Metabolite_Detected” and the fraction unbound at 6 h, 1 µM [15] was 0.095. For the same compound, the bioavailability [16] was 86%, the ED50 (Rattus norvegicus [17]) was 8.3 mg/kg and the Activity (Rattus norvegicus [18]) was “Toxic”. It also gave a fraction unbound at 5 h, 5 µM [19] of 0.041, a bioavailability [20] of 3% and a fraction unbound at 6 h, 1 µM [21] of 0.095. For the same compound, the Drug metabolism (Liver [22]) was “Metabolite_Detected”, the Cp (Rattus norvegicus [23]) was 51 ng/mL and the fraction unbound at 6 h, 1 µM [24] was 0.085.
O=C(NCC12CC3CC(CC(C3)C1)C2)c1cc(CCCNCCCO)ccc1Cl [AZD9056] gave an IC50 (P2X purinoceptor 7) of 0.01 to 0.013 µM.
For C[C@@H]1c2nnn(-c3cnccn3)c2CCN1C(=O)c1cccc(C(F)(F)F)c1Cl, the Vd [1] was 3 L/kg, the solubility at 72 h [3] was 94.4 µM (≈ 39.9 µg/mL) and the Occ (Rattus norvegicus [25]) was “Dose-dependent effect”. The ED50 (Rattus norvegicus [25]; 1 h) was 0.3 mg/kg, the IC50 (Cytochrome P450 2C9) was over 10 µM and the clearance [8] was 46 mL/min/kg. It also gave an IC50 (Cytochrome P450 3A4) of 2.3 µM, an IC50 (Cytochrome P450 2C19 [26]) of 4.3 µM and a solubility at 72 h [11] of 48.2 µM (≈ 20.4 µg/mL). The inhibition (Rattus norvegicus [27]) was “Dose-dependent effect”, the IC50 (Cytochrome P450 2D6) was over 10 µM and the IC50 (Cytochrome P450 1A2) was over 10 µM. The half-life [13] was 1.5 h, the fraction unbound at 6 h, 1 µM [15] was 0.063 and the clearance [28] was 33 mL/min/kg. It also gave an IC50 (Cytochrome P450 2C8) of over 10 µM, a bioavailability [29] of 65% and a fraction unbound at 5 h, 5 µM [19] of 0.05. It also gave a bioavailability [20] of 77%, a fraction unbound at 6 h, 1 µM [21] of 0.053 and an IC50 [30] of over 10 µM. It also gave a half-life [31] of 2.4 h, a fraction unbound at 6 h, 1 µM [24] of 0.084 and a Vd [32] of 3.3 L/kg.
